For five compounds, IC50 results are on record in BindingDB's records for doi:10.1021/acs.jnatprod.4c00082 (Johannes Gutenberg-University, 2024).

The target in this experiment is T1, Signal transducer and activator of transcription 6 (Homo sapiens, UniProt P42226).
T1 sequence (P42226 whole entry): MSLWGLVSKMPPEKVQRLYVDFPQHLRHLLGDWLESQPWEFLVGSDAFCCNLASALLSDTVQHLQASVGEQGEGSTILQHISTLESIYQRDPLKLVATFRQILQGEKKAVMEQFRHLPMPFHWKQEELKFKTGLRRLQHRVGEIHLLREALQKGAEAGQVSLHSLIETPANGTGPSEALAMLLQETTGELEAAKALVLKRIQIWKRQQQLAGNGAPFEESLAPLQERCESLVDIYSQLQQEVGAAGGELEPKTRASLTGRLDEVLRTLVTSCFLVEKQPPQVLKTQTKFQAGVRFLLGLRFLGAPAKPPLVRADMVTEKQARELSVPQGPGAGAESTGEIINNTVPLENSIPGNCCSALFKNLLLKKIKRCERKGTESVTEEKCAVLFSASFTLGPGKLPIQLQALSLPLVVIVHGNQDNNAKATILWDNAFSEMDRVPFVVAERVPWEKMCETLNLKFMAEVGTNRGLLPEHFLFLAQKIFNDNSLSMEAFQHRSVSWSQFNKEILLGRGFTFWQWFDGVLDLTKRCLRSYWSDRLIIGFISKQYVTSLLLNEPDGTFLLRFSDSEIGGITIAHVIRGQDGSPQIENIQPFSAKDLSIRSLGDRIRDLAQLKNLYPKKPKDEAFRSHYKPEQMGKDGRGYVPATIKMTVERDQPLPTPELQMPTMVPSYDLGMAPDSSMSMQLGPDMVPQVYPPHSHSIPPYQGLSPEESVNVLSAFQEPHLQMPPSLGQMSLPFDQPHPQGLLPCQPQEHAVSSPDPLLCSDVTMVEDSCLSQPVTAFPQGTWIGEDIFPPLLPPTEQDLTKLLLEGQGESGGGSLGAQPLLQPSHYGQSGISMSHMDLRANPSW
Kind of experiment: Inhibition of IL-4 induced STAT6 signaling in human HepG2 cells harboring pRL-EF1alpha, pGL3-TK-7xN4 and TOPO-Stat6 plasmid assessed as luciferase activity incubated for 24 hrs.
What is called IC50 is the concentration needed to halve the response being measured. For `C/C1=C\C[C@H](O)[C@H](C)[C@@H](C)OC(=O)Cc2c(Cl)c(O)cc(O)c2C1=O`, the IC50 was found to be 50 nM.
With `C/C1=C\C[C@@H](O)[C@H](C)[C@H](C)OC(=O)Cc2c(Cl)c(O)cc(O)c2C1=O`, the IC50 came to 1000 nM.
On to `C/C1=C\C[C@H](O)[C@H](C)[C@H](C)OC(=O)Cc2c(Cl)c(O)cc(O)c2C1=O`, for which the IC50 was determined as 200 nM.
For the compound `C/C1=C/C[C@@H](O)[C@H](C)[C@@H](C)OC(=O)Cc2c(Cl)c(O)cc(O)c2C1=O`, the IC50 turned out to be 72 nM.
To `C/C1=C/C[C@H](O)[C@H](C)[C@@H](C)OC(=O)Cc2c(Cl)c(O)cc(O)c2C1=O` belongs 64 nM.
